Reference: article PMC3836372 (Biochemical and biophysical research communications, 2013)

Molecular target: BmorOR1·BmorOrco (Bombyx mori, UniProt Q5WA61, P178A)
Assay type: cell-based
Settings: agonist; co-expressed with BmorOrco; 0.1% DMSO; -80 mV

With `CCC/C=C\C=C\CCCCCCCCCO` [bombykol, (10E,12Z)-hexadecadien-1-ol] the “two-electrode voltage clamp, Xenopus oocytes, dose-response of odorant-induced c” value was “the effect on P178A-BmorOR1 was moderate”.
